Assay results as given in patent US9744250B2, “Chemical model of a neurodegenerative disease, method for preparation and uses of same” (priority 2012, dated 2017).

Experiments:
[1] = Cell viability test in MTT; type: cell-based, human; conditions: human, SH-SY5Y neuroblastoma cells, 96 h of incubation, read-out: reduction of cell viability
Method: (§1) Cells from SH-SY5Y human neuroblastomas were cultured in a DMEM medium containing 4.5 g·L^−1 glucose, 10% fetal calf serum, and 1% penicillin/streptomycin, and placed in an incubator at 37° C. with 7% CO2.
(§2) In the various experiments, the SH-SY5Y cells were seeded at a density of 4×10^4 cells/mL. 24 h after seeding, the cells were exposed to the various test compounds at 37° C. for 24 h, 48 h, 72 h, or 96 h.
(§3) This test consisted of rapidly measuring cellular metabolic activity in the presence of the study compound at different concentrations, in order to conduct a dose-response study. To do this, the tetrazolium salt MTT, 3-(4,5-dimethylthiazol-2-yl)-2,5-diphenyltetrazolium bromide (Amoroso et al., Biochim Biophys Acta, 1999, 1452(2):151-60), was placed in contact with the cells. MTT is reduced to formazan by living cells that have the capacity to metabolize it, unlike dead cells. To conduct this test, SH-SY5Y neuronal cells in 48-well plates were incubated for 24 h, 48 h, 72 h, and 96 h, with furosemide pyridinium at concentrations ranging from 0 to 1000 μM. Then MTT (0.5 mg/ml final) was added to each well and incubated at 37° C. for 2 h. At the end of incubation, after carefully removing the medium, DMSO was added (200 μL) to dissolve the cell membranes and the formazan crystals formed by the living cells. The toxicity of the molecule was evaluated by determining the amount of reduced MTT, doing so by measuring the absorbance at 550 nm as this value is proportional to the number of living cells. The results were expressed as a function of the values obtained for cells treated only with the solvent used to dissolve the compound of interest. To compare the toxicity of furosemide pyridinium to that of MPP+, the cells were incubated in the presence of MPP+ (0 to 1000 μM) for 6 h. The culture medium was replaced and the cells were incubated at 37° C. for an additional 24 h (no MPP+). Cell survival was measured at the end of these 24 hours of incubation as described above. When evaluating the effect of different concentrations of α-tocopherol (vitamin E), a membrane antioxidant, the cells were pretreated for 24 h with this antioxidant before being exposed to furosemide pyridinium at a concentration of 0.5 mM under the same experimental conditions as above.

SH-SY5Y neuronal cells = assay: Cell viability test in MTT; type: cell-based, human
Method: as §1, §2, §3

caspase-3 = assay: Caspase-3 activity (Ac-DEVD-AFC cleavage) in SH-SY5Y cells; type: cell-based, human; conditions: 1 mM, 96 h
Method: Measurement of the activities of the various caspases is based on the ability of the caspases to cleave specific fluorescent substrates: Ac-DEVD-AFC for caspase-3, Ac-IETD-AFC for caspase-8, or Ac-LEHD-AFC for caspase-9. SH-SY5Y neuronal cells were incubated in 48-well plates with either furosemide pyridinium (1 mM) for 96 h or with MPP+ (1 mM) for 6 h, then 24 h of incubation with no MPP+. After incubation, the cells were trypsinized, then rinsed with PBS and counted, then harvested in 100 μl of buffer containing 30 mM HEPES, 0.3 mM EDTA, 100 mM NaCl, 0.15% Triton X-100, and 10 mM DTT. The cell extract was then incubated for 1 hour at 37° C. with the specific substrate (100 μM) in a 96-well plate. Fluorescence was measured at λex400 nm and λem505 nm in a fluorescence detection plate reader (TECAN Infinite M1000) (Yue et al., supra). The results were expressed as percentages relative to the measured activity of cells cultured under the same conditions and not subjected to any treatment.

[2] = tested on: mitochondrial respiratory chain; assay: Respiratory chain activity of mitochondria from striata of exposed mice; type: in vivo, mouse; conditions: 20 mg/kg/day oral 7 days, 30 days after end of exposure
Method: Added to the polarography chamber (Hansatech) were 30 μl of mitochondria solution (0.2 mg), 460 μL of respiration buffer, 5 μl of test compound solution (meaning MPP+ or furosemide pyridinium) (or its solubilizing solvent). Then 5 μl of a 10/10 mM mixture of malate-pyruvate substrates were added, which allowed the respiratory chain to function (stage 2) starting from complex I. After about 40 seconds, 5 μl of 200 μM ADP were added, resulting in an increase in oxygen consumption as the ADP activated complex V (stage 3). Once all the ADP was consumed, the oxygen consumption returned to an initial stage (stage 4) that is equivalent to stage 2. The effect of the compound on respiratory control was evaluated (ratio of stage 3 to 4), which corresponds to the coupling of the respiratory chain, or in other words the ATP synthesis at complex V and the oxygen consumption due to complexes I to IV. The results are expressed as percentages of the value measured for mitochondria not treated with the test compound (but treated with the solubilizing solvent).
Swiss mice were divided into two groups of five animals (experimental and control). The experiments were performed independently two times. The mice of the experimental group were exposed to furosemide pyridinium for 7 days at a daily dose of 20 mg/kg. The furosemide pyridinium was administered orally in the drinking water. […]

complex I = assay: Complex I activity of mitochondria from striata of exposed mice; type: in vivo, mouse; conditions: 20 mg/kg/day oral 7 days, 30 days after end of exposure
Method: The kinetics of the oxidation reaction of NADH into NAD+ at 340 nm at 37° C. were continuously monitored by spectrophotometry using a JASCO V-530 spectrophotometer or a TECAN 1000M Infinite plate reader, set to a wavelength of 340 nm for 3 min. The amount of mitochondria extract to obtain the maximum activity introduced into the reaction volume was 100 μg with the spectrophotometer and 10 μg with the reader. Each manipulation must be done at substrate saturation, which is an NADH concentration of 160 μM. Mitochondria previously divided into multiple aliquots were frozen, then quickly thawed a few minutes before use. In a first step, the mitochondria extract was introduced into the hypotonic buffer (50 mM KH2PO4 and 10 mM MgCl2, pH=7.2 at 37° C.) for 2 minutes to break open the mitochondrial membranes and access the respiratory chain (Chretien et al., Biochem Biophys Res Commun, 2003, 301(1):222-4). […] The slope of the kinetics was then measured. […] The inhibition percentage was then calculated. […]
For each mouse sacrificed, cortex and striatum samples had been previously collected and processed to extract the mitochondria. The activity of the mitochondrial respiratory chain and of complex I were determined as described in Part B above, in the “Materials and Methods” subsection (without addition of furosemide pyridinium or an analog to the medium).

Compound: NS(=O)(=O)c1cc(C(=O)[O-])c(-[n+]2cccc(O)c2)cc1Cl [furosemide pyridinium, 4-chloro-2-(3-hydroxypyridinium-1-yl)-5-sulfamoylbenzoate]
- cytotoxicity at 96 h [1]: ~60%
- decrease in cell survival (SH-SY5Y neuronal cells; 0.5 mM, 96 h): about 20%
- effect on cell survival (SH-SY5Y neuronal cells; 24 h of incubation, even at 1 mM): no significant effect
- EC50 (SH-SY5Y neuronal cells; Homo sapiens, 96 h of incubation, estimated, read-out: EC50 (cell survival)): 973 µM
- activity of caspase-3 compared to untreated cells (caspase-3): 179%
- decrease in respiratory control of striatal mitochondria vs control animals [2]: 28%
- decrease in activity of complex I of striatal mitochondria vs control animals (complex I): 49%
